Literature values in patent publication US8278324B2, “Oxadiazole derivatives active on sphingosine-1-phosphate (S1P)” (Glaxo Group Limited, priority 2007, dated 2012).

What was measured:
[1] = clinical studies, first 24 hours of treatment
circulating lymphocytes = settings: animals and man

bradycardia [1]: results in bradycardia
Compound: CCCCCCCCc1ccc(CCC(N)(CO)CO)cc1 [FTY720]
effect on circulating lymphocytes (circulating lymphocytes): reduce circulating lymphocytes
